Consider 18 compounds from patent US20240217951A1, “PCSK9 INHIBITORS AND METHODS OF USE THEREOF” (AstraZeneca AB, priority 2022, published 2024).

In assay [1] the target is T1, potassium ion channel hERG (human Ether-á-go-go-Related Gene) (Homo sapiens, UniProt Q12809).
T1 construct: expressed in transfected cells; host or cells: Chinese hamster ovary K1 (CHO)
The experiment in a line: Assay 5 - hERG assay (SyncroPatch 384PE patch clamp, CHO cells). The note with it: geometric mean; CHO cells over-expressing hERG; read-out: Assay 5 (hERG Hu CHO IF EPh CR-Syncro) GMean IC50. The format is cell-based. The protocol: Assay 5—hERG Assay (Human Ether-á-go-go-Related Gene)
This assay (human Ether-á-go-go-Related Gene) measures activity of the compounds at the potassium ion channel hERG (human Ether-á-go-go-Related Gene).
Experiments were performed on the SyncroPatch 384PE high throughput patch clamp platform at room temperature and medium resistance chips with 4 patch holes per site. Chinese hamster ovary K1 (CHO) cell lines over-expressing the ion channel of choice (hERG) were used in assay-ready format and kept in liquid nitrogen or were used from live culture. Cells were either thawed and diluted in HBSS or were detached from flasks and resuspended in HBSS. HBSS comprised 140 mM NaCl, 4 mM KCl, 10 mM HEPES and 5 mM Glucose (pH7.4). The internal patch clamp solution was KF 120 mM, KCl 20 mM, HEPES 10 mM, EGTA 10 mM, and 25 PM Escin (pH 7.2). After the sealing process was complete, the external solution was exchanged for external patch clamp solution comprising NaCl 80 mM, KCl 4 mM, HEPES 10 mM, CaCl2 2 mM, MgCl2 1 mM, glucose 5 mM, and NMDG 60 mM (pH 7.4). All solutions were stored at room temperature, except Escin, which was stored at 4° C. All test compounds were dispensed in greiner-bio 384 well plates and tested in a 6 point cumulative assay (final DMSO concentration 0.33%). Only wells that passed previously agreed acceptance criteria for this platform were used in this analysis (30 MegaOhm seal resistance, Z prime >0.4 and current size >0.2 nA).
(The hERG channel carries a current that helps repolarise heart muscle cells.)

Assay [2] deals with GSK3β (Glycogen synthase kinase-3 beta) (Homo sapiens, UniProt P49841). As to the kind of experiment: Assay 6 - GSK3β assay (ThermoFisher Z-Lyte). Particulars: geometric mean; ATP Conc: 10 μM; read-out: Assay 6 (GSK3β FRET-Z-Lyte CR) GMean IC50 (μM) ATP Conc: 10. It counts as biochemical. The protocol:
Assay 6—GSK3β Assay (ThermoFisher Assay)
This assay measures the activity of the compounds at GSK3β (Glycogen synthase kinase-3 beta).
The test compounds were screened in 1% DMSO (final) in the well. For 10 point titrations, 3-fold serial dilutions are conducted from the starting concentration of 10 μM.
Bar-coded Corning, low volume NBS, black 384-well plate • 1. 2.5 μL—4× Test Compound or 100 nL 100× plus 2.4 μL kinase buffer • 2. 5 μL—2× Peptide/Kinase Mixture • 3. 2.5 μL—4×ATP Solution • 4. 30-second plate shake • 5. 60-minute Kinase Reaction incubation at room temperature • 6. 5 μL—Development Reagent Solution • 7. 30-second plate shake • 8. 60-minute Development Reaction incubation at room temperature • 9. Read on fluorescence plate reader and analyse the data
In step 2, the 2×GSK3β (GSK3 beta)/Ser/Thr (Glycogen synthase kinase-3 beta/Serine/Threonine) 09 mixture is prepared in 50 mM HEPES (4-(2-hydroxyethyl)-1-piperazineethanesulfonic acid) pH 7.5, 0.01% BRIJ-35, 10 mM MgCl2, 1 mM EGTA (egtazic acid). The final 10 μL Kinase Reaction consists of 0.22-0.92 ng GSK3β (GSK3 beta) and 2 μM Ser/Thr 09 in 50 mM HEPES pH 7.5, 0.01% BRIJ-35, 10 mM MgCl2, 1 mM EGTA.
In step 3 the ATP Solution is diluted to a 4× working concentration in Kinase Buffer (50 mM HEPES pH 7.5, 0.01% BRIJ-35, 10 mM MgCl2, 1 mM EGTA).
In Step 6 the Development Reagent is diluted 1:512 in Development Buffer (10× Novel PKC Lipid Mix: 2 mg/mL Phosphatidyl Serine, 0.2 mg/mL DAG in 20 mM HEPES, pH 7.4, 0.3% CHAPS).
SelectScreen® Kinase Profiling Service uses XLfit from IDBS. The dose response curve is curve fit to model number 205 (sigmoidal dose-response model).

For the next assay, the target named is PCSK9 (Homo sapiens, UniProt Q8NBP7, G670E/V474I). As to the kind of experiment: biochemical.
PCSK9, sequence (Q8NBP7 with tags, fused parts or gaps V474I/G670E): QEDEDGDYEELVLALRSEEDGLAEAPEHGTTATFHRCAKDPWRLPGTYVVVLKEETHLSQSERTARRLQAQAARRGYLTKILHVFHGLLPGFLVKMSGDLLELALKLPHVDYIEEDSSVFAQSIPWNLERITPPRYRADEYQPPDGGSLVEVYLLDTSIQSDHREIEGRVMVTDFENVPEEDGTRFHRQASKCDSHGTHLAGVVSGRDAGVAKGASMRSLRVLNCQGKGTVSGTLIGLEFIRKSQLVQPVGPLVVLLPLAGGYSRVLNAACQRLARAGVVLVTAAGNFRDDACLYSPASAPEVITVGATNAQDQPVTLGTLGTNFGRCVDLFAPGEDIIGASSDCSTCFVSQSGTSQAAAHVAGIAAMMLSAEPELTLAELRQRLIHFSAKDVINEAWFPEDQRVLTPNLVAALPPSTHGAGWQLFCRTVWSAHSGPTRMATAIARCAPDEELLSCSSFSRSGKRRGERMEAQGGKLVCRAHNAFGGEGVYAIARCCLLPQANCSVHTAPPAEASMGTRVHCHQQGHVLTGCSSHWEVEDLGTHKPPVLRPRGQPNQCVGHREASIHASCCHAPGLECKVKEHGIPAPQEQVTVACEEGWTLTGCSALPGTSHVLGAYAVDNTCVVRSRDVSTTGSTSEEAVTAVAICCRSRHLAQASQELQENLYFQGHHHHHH

Structures are written as SMILES.

T1 sequence (Q12809 whole entry): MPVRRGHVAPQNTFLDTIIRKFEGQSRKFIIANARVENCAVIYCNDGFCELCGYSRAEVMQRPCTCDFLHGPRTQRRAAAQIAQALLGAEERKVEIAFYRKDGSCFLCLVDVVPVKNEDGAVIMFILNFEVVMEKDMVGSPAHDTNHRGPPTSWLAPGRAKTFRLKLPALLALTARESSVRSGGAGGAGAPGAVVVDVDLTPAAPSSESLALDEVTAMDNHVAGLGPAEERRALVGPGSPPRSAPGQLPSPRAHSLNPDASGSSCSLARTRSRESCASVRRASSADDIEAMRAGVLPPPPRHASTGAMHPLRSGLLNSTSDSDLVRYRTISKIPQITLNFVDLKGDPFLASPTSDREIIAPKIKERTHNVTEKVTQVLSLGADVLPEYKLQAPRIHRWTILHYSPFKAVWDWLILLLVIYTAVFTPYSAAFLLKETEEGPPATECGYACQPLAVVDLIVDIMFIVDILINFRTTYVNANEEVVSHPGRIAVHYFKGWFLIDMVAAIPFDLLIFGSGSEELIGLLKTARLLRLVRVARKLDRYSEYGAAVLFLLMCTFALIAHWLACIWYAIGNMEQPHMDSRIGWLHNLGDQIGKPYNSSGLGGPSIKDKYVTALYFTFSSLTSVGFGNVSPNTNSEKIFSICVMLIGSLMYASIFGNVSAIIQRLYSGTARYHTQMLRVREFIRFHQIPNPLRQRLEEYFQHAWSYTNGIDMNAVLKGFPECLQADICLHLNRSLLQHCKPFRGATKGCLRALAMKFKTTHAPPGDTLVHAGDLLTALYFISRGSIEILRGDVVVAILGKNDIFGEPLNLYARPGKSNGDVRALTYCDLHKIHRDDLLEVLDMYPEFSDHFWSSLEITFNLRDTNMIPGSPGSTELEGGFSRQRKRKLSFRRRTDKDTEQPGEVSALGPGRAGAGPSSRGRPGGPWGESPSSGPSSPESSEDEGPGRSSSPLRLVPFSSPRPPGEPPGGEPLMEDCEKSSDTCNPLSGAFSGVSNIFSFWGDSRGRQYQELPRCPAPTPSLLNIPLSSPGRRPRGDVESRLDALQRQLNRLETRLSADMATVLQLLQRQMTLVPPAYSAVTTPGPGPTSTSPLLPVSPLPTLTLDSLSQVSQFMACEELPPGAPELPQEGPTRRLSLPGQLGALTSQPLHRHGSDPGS
GSK3β (Glycogen synthase kinase-3 beta), sequence (P49841 whole entry): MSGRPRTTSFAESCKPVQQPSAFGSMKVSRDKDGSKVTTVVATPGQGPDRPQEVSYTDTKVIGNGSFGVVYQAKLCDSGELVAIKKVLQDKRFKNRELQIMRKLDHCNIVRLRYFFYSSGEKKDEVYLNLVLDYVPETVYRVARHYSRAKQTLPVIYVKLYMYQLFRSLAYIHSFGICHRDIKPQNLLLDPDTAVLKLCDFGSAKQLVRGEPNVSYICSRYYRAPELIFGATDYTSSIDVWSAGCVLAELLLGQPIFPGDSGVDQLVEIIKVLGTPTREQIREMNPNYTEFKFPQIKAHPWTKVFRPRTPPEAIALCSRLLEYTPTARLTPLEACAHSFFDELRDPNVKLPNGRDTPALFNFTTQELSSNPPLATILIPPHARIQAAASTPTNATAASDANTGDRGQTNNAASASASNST

For orientation: IC50 means the concentration at which inhibition is half-maximal. `O=C1CC[C@H](CO)N1c1ccc(N[C@H]2CC[C@H](Nc3cnc(OC(F)F)cn3)C2)nc1` [Example 77, (R)-1-(6-(((1S,3S)-3-((5-(Difluoromethoxy)pyrazin-2-yl)amino)cyclopentyl)amino)pyridin-3-yl)-5-(hydroxymethyl)pyrrolidin-2-one]: the 50% inhibitory concentration (IC50) in assay [1] is > 40 µM; in assay [2], > 10 µM; at PCSK9, 1.53 µM.
As for `O=C1[C@@H]2OCC[C@@H]2CCN1c1ccc(N[C@H]2CC[C@H](Nc3cnc(OC(F)F)cn3)C2)nc1` [Example 78, (3aS,7aR)-6-(6-(((1S,3S)-3-((5-(Difluoromethoxy)pyrazin-2-yl)amino)cyclopentyl)amino)pyridin-3-yl)hexahydrofuro[2,3-c]pyridin-7(4H)-one], the results for the IC50 (in assay [1]; in assay [2]; at PCSK9) were > 40 µM, > 10 µM and 1.63 µM, respectively.
Turning to `C[C@@]12C[C@]1(C)C(=O)N(c1ccc(N[C@H]3CC[C@H](Nc4cnc(OC(F)F)cn4)C3)nc1)C2=O` [Example 80, (cis)-3-(6-(((1S,3S)-3-((5-(Difluoromethoxy)pyrazin-2-yl)amino)cyclopentyl)amino)pyridin-3-yl)-1,5-dimethyl-3-azabicyclo[3.1.0]hexane-2,4-dione], the figures for the IC50 (in assay [1]; in assay [2]; on PCSK9) were > 40 µM, > 10 µM and 1.03 µM, respectively.
For `O=c1ccc(Cl)cn1-c1ccc(N[C@H]2CC[C@H](Nc3cnc(OC(F)F)cn3)C2)nc1` [Example 83, 5-Chloro-6′-(((1S,3S)-3-((5-(difluoromethoxy)pyrazin-2-yl)amino)cyclopentyl)amino)-2H-[1,3′-bipyridin]-2-one] the same measures were 5 µM, > 10 µM and 0.044 µM.
As to `N#Cc1ccc(=O)n(-c2ccc(N[C@H]3CC[C@H](Nc4cnc(OC(F)F)cn4)C3)nc2)c1` [Example 89, 6′-(((1S,3S)-3-((5-(Difluoromethoxy)pyrazin-2-yl)amino)cyclopentyl)amino)-2-oxo-2H-[1,3′-bipyridine]-5-carbonitrile], the 50% inhibitory concentration (IC50) in assay [1] is 6.8 µM; in assay [2], > 10 µM; against PCSK9 it was 0.121 µM.
For `N#Cc1cccn(-c2ccc(N[C@H]3CC[C@H](Nc4cnc(OC(F)F)cn4)C3)nc2)c1=O` [Example 90, 6′-(((1S,3S)-3-((5-(Difluoromethoxy)pyrazin-2-yl)amino)cyclopentyl)amino)-2-oxo-2H-[1,3′-bipyridine]-3-carbonitrile], in that order: 11.7 µM, > 10 µM and 0.015 µM.
For `Cc1nc(N[C@H]2CC[C@H](Nc3ccc(-n4ccccc4=O)cn3)C2)cnc1OC(F)F` [Example 91, 6′-(((1S,3S)-3-((5-(Difluoromethoxy)-6-methylpyrazin-2-yl)amino)cyclopentyl)amino)-2H-[1,3′-bipyridin]-2-one] the same measures were 9.6 µM, > 10 µM and 0.436 µM.
For `CN1CC(=O)N(c2ccc(N[C@H]3CC[C@H](Nc4cnc(OC(F)F)cn4)C3)nc2)C1=O` [Example 93, 3-(6-(((1S,3S)-3-((5-(Difluoromethoxy)pyrazin-2-yl)amino)cyclopentyl)amino)pyridin-3-yl)-1-methylimidazolidine-2,4-dione], in that order: > 40 µM, > 10 µM and 0.087 µM.
In the case of `COc1ccc(=O)n(-c2ccc(N[C@H]3CC[C@H](Nc4cnc(OC(F)F)cn4)C3)nc2)c1` [Example 95, 6′-(((1S,3S)-3-((5-(Difluoromethoxy)pyrazin-2-yl)amino)cyclopentyl)amino)-5-methoxy-2H-[1,3′-bipyridin]-2-one], the concentration for half-maximal inhibition (IC50) in assay [1] was 11.1 µM; in assay [2] it was 0.115 µM; against PCSK9, 0.114 µM.
For `N#Cc1ccc(=O)n(-c2ccc(N[C@H]3CC[C@H](Nc4cnc(Cl)cn4)C3)nc2)c1` [Example 99, 6′-(((1S,3S)-3-((5-Chloropyrazin-2-yl)amino)cyclopentyl)amino)-2-oxo-2H-[1,3′-bipyridine]-5-carbonitrile], in that order: 19.9 µM, > 10 µM and 0.04 µM.
For `O=c1ccc(Cl)cn1-c1ccc(N[C@H]2CC[C@H](Nc3cnc(C4CC4)cn3)C2)nc1` [Example 109, 5-Chloro-6′-(((1S,3S)-3-((5-Cyclopropylpyrazin-2-yl)amino)cyclopentyl)amino)-2H-[1,3′-bipyridin]-2-one] the same measures were 19.9 µM, > 10 µM and 0.041 µM.
On to `N#Cc1ccc(=O)n(-c2ccc(N[C@H]3CC[C@H](Nc4cnc(C5CC5)cn4)C3)nc2)c1` [Example 110, 6′-(((1S,3S)-3-((5-Cyclopropylpyrazin-2-yl)amino)cyclopentyl)amino)-2-oxo-2H-[1,3′-bipyridine]-5-carbonitrile], for which the results for the IC50 (in assay [1]; in assay [2]; against PCSK9) were 25.3 µM, > 10 µM and 0.048 µM, respectively.
`CNC(=O)c1cnc(N[C@H]2CC[C@H](Nc3ccc(-n4cccc(Cl)c4=O)cn3)C2)cn1` [Example 149, 5-(((1S,3S)-3-((3-Chloro-2-oxo-2H-[1,3′-bipyridin]-6′-yl)amino)cyclopentyl)amino)-N-methylpyrazine-2-carboxamide]: the half-inhibitory concentration (IC50) in assay [1] was > 40.1 µM; in assay [2] it was > 10 µM; against PCSK9, 3.96 µM.
For `CSc1cnc(N[C@H]2CC[C@H](Nc3ccc(-n4ccccc4=O)cn3)C2)cn1` [Example 162, 6′-(((1S,3S)-3-((5-(Methylthio)pyrazin-2-yl)amino)cyclopentyl)amino)-2H-[1,3′-bipyridin]-2-one] the same measures were > 40.1 µM, > 10 µM and 0.042 µM.
With `CCSc1cnc(N[C@H]2CC[C@H](Nc3ccc(-n4ccccc4=O)cn3)C2)cn1` [Example 163, 6′-(((1S,3S)-3-((5-(Ethylthio)pyrazin-2-yl)amino)cyclopentyl)amino)-2H-[1,3′-bipyridin]-2-one], the IC50 in assay [1] was 30.7 µM; in assay [2], > 10 µM; at PCSK9, 0.14 µM.
Consider `COC(=O)CSc1cnc(N[C@H]2CC[C@H](Nc3ccc(-n4ccccc4=O)cn3)C2)cn1` [Example 164, Methyl 2-((5-(((1S,3S)-3-((2-oxo-2H-[1,3′-bipyridin]-6′-yl)amino)cyclopentyl)amino)pyrazin-2-yl)thio)acetate], for which the results for the IC50 (in assay [1]; in assay [2]; against PCSK9) were > 40.1 µM, > 10 µM and 0.451 µM, respectively.
In the case of `Cc1cnc(N[C@H]2CC[C@H](Nc3ccc(-n4cccc(-c5c[nH]nn5)c4=O)cn3)C2)cn1` [Example 205, 6′-(((1S,3S)-3-((5-Methylpyrazin-2-yl)amino)cyclopentyl)amino)-3-(1H-1,2,3-triazol-4-yl)-2H-[1,3′-bipyridin]-2-one], the IC50 in assay [1] is > 40.1 µM; in assay [2] it was > 10 µM; against PCSK9, 0.007 µM.
In the case of `Cc1cnc(N[C@H]2CC[C@H](Nc3ccc(-n4cc(-c5cnn(C)c5)ccc4=O)cn3)C2)cn1` [Example 206, 5-(1-Methyl-1H-pyrazol-4-yl)-6′-(((1S,3S)-3-((5-methylpyrazin-2-yl)amino)cyclopentyl)amino)-2H-[1,3′-bipyridin]-2-one], the IC50 in assay [1] is > 40.1 µM; in assay [2], > 10 µM; against PCSK9 it was 0.022 µM.
